Source: US12415819B2, “Cu- and Ni-catalyzed decarboxylative borylation reactions” (The Scripps Research Institute, priority 2017, dated 2025)
Values joined by “and” are separate entries in the source; they are usually repeats but may differ in a detail not shown here. Equal values may be shown once.

Columns and labels:
Plasma Stability Assay = format: in vitro ADME, mouse; conditions: for % Remaining (mean): CD-1 Mouse Plasma; for portion intact in CD-1 mouse plasma: over 2 hours; for CD-1 Mouse Plasma % Remaining @ 2 hr: summary table
Description: Propantheline was used as the reference compound in this assay; all stock solutions were stored at −40° C. before use. • 2) Test system: CD-1 Mouse Plasma from a minimum of 20 male individuals were obtained from BioreclamationlVT (Catalog #: […]2-M; Batch #: MSE244515). EDTA-K2 was used as the anticoagulant. Procedure:
The frozen plasma was thawed in a water bath at 37° C. prior to the experiments. The plasma was centrifuged at 4000 rpm for 5 min and the clots were removed if necessary.
The pH was adjusted to 7.4±0.1 as necessary. An intermediate solution (1 mM) was prepared and a 100 μM dosing solution was prepared by diluting 10 μL of the intermediate solution with 90 μL 45% MeOH/H2O. Duplicate of test samples were made by mixing 98 μL of blank plasma with 2 μL of dosing solution (100 μM) to achieve the final concentration of 2 μM. Samples were incubated at 37° C. At each time point (0, 10, 30, 60, and 120 min), 400 μL of stop solution (consisting of 200 ng/mL tolbutamide and 20 ng/mL buspirone in 50% MeOH/CH3CN) was added to precipitate protein under thorough mixing. The sample plates were then centrifuged at 4,000 rpm for 10 min. An aliquot of supernatant (100 μL) was transferred from each well and mixed with 200 of μL ultrapure water. The samples were shaken at 800 rpm for about 10 min before LC-MS/MS analysis.
Data analysis: The % remaining of test compound after incubation in plasma was calculated using following equation: Remaining=100×(PAR at Tn/PAR at T0) where PAR is the peak area ratio of analyte versus internal standard (IS) and The appointed incubation time points are T0 (0 min), Tn (n=0, 10, 30, 60, 120 min).
LC-MS/MS condition: Each compound was analyzed by LC/MS using an ACE 5-phenyl 50×2.1 mm column (Part No. ACE-125-0502) with 0.1% formic acid in water and 0.1% formic acid in acetonitrile as the mobile phases. Tobultamide was used as the internal standard. Data collected were processed by Analyst 1.6.2 software and MultiQuant 3.0.2 software.

Kinetic Solubility Test = format: physicochemical; conditions: for solubility kinetic at 24 h: aqueous buffer, kinetic from dmso stock, phosphate buffer pH 6.8, 24 h; for Kinetic solubility (pH 6.8): summary table
Description: The stock solution of each compound (10 μL; 10 mM in DMSO) was diluted with phosphate buffer solution (490 μL; 50 mM, pH 6.8). The resulting mixture was shaken for 24 h. Samples were then filtered.

[1] = biological target: elastase in COPD patient sputum (Homo sapiens (Human), UniProt P08246); assay: Elastase inhibition assay in COPD patient sputum; format: biochemical
Sequence of elastase in COPD patient sputum (P08246 30-267): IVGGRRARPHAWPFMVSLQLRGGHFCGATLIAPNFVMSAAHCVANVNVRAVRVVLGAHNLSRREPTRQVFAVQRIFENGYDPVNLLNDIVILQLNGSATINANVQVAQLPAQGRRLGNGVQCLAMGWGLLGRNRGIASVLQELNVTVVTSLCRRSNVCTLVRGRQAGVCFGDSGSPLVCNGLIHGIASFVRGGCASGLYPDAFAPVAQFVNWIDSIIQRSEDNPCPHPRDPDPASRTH
Description: Serially diluted compounds in DMSO were dispensed into a 384-well black opaque plate by Echo dispenser. 0.1 μg/mL human neutrophil elastase (EPC, Catalog# SE563, Owensville, Ms.) or human sputum diluted with assay buffer (100 mM HEPES, 500 mM NaCl, 0.02% Tween 20) was added into the 384-well plate, and was incubated with different compounds at different concentrations for 30 minutes at room temperature. The final concentration of DMSO in the reaction was 0.1%. Elastase substrate MeOSuc-AAPV-AMC (Bachem, Catalog #I-1270, Torrance, CA) of 100 μM final concentration was then added into the reaction system just before enzyme kinetics were read on PheraSTAR plate reader at excitation of 380 nm and emission of 460 nm with a 3-minutes interval for 30 minutes in total. Slope of fluorescence intensity vs. time representing the Vmax of enzyme activity was calculated with MARS software. % relative inhibition was calculated as: […]
IC50 was calculated based on the % relative inhibition curve using log(agonist) vs. response (three parameters) method with Prism software. All experiments were performed in triplicate for at least three independent times.
Human sputum was purchased from Discovery Life Sciences (Los Osos, CA). Human sputum was diluted 1:10 in volume with assay buffer (100 mM HEPES, 500 mM NaCl, 0.02% Tween 20) followed by vigorous vortexing. The 1:10 diluted human sputum was further diluted into 1:30, 1:90, 1:270, 1:810, and 1:2430. The elastase concentration was determined by elastase inhibition assay as described above. Specifically, a series of standards of human neutrophil elastase (starting at 2 μg/mL and further diluted 1:2 in volume) were prepared in the assay buffer. The samples and standards were plated in a 384-well black solid bottom plate; the substrate MeOSuc-AAPV-AMC of 100 μM final concentration was then added into the reaction system just before enzyme kinetics were read on PheraSTAR plate reader as mentioned above. The slope of enzymatic kinetic reading was calculated by MARS software. The elastase levels of the human sputum were calculated based on the standard curve.

in vitro = conditions: mouse, pH 7.4; for Extraction ratio / Microsomal stability (Mouse ER) / Remaining (*NCF = 60min) / Remaining (T = 60 min): 1 μM; for Microsomal stability (Mouse ER) / Remaining (*NCF = 60min) / Remaining (T = 60 min) / CLint scaled at 1 μM / half-life at 1 μM / microsomal CLint at 1 μM: microsomes; for Remaining (*NCF = 60min) / Remaining (T = 60 min): 1 h
Description: 100 mM potassium phosphate buffer, pH 7.4. • 2. 10 mM MgCl2 • 3) Compound Dilution:
Intermediate solution was prepared by diluting 5 μL of compound or control stock solution (10 mM in DMSO) with DMSO (45 μL) and 1:1 Methanol/Water (450 μL) (concentration=100 μM, 45% MeOH). Working solution was prepared by diluting 50 μL of the intermediate solution with 450 μL of 100 mM potassium phosphate buffer, pH=7.4 (centration=10 μM, 4.5% MeOH). • 4) NADPH regenerating system (final Isocitric dehydrogenase concentration=1 unit/mL at incubation) comprised:
10 μL/well of compound working solution or control working solution was added to all plates (T0, T5, T10, T20, T30, T60, NCF60) except the matrix blank. 80 μL/well of microsome solution was added to every plate. The mixtures of microsome solution and compound were incubated at 37° C. for about 10 min. 10 μL/well of NADPH regenerating system (pre-warmed to 37° C.) was then added to every plate to start the reaction. […] For NCF60 (abbreviation of no co-factor) no NADPH regenerating system was added, but was replaced by 10 μL/well of potassium phosphate buffer (100 mM, pH 7.4); the resulting mixture was incubated at 37° C. for 1 h.
The reactions were then terminated with the stop solution (cold at 4° C.) containing 100 ng/mL Tolbutamide and 100 ng/mL Labetalol ([…]). The sampling plates were shaken for approximately 10 minutes, then were centrifuged at 4000 rpm for 20 min at 4° C. While centrifuging, 8 new 96 well plates were loaded with […] of HPLC grade water. 100 μL of supernatant was finally added to 300 μL of HPLC grade water and mixed for LC/MS/MS analysis.
The equation of first order kinetics was used to calculate T1/2 and CIint(mic): […]

| SMILES | % Remaining (mean) (Plasma Stability Assay; 0 min, 2 μM, 37° C.) [%] | % Remaining (mean) (Plasma Stability Assay; 10 min) [%] | % Remaining (mean) (Plasma Stability Assay; 30 min) [%] | % Remaining (mean) (Plasma Stability Assay; 60 min) [%] | % Remaining (mean) (Plasma Stability Assay; 120 min) [%] | portion intact in CD-1 mouse plasma (Plasma Stability Assay) [%] | CD-1 Mouse Plasma % Remaining @ 2 hr (Plasma Stability Assay) [%] | solubility kinetic at 24 h (Kinetic Solubility Test) | Kinetic solubility (pH 6.8) (Kinetic Solubility Test) [μm] | IC50 [1] [nM] | LipE [1] | Extraction ratio (in vitro) | Microsomal stability (Mouse ER) (in vitro) | Remaining (*NCF = 60min) (in vitro) [%] | Remaining (T = 60 min) (in vitro) [%] | CLint scaled at 1 μM (in vitro) [mL/min/kg] | half-life at 1 μM (in vitro) [h] | microsomal CLint at 1 μM (in vitro) [µL/min/mg] |
| --- | --- | --- | --- | --- | --- | --- | --- | --- | --- | --- | --- | --- | --- | --- | --- | --- | --- | --- |
| CC(C)[C@H](NC(=O)[C@@H]1CCCN1C(=O)[C@@H](NC(=O)c1ccc(C(=O)NS(=O)(=O)c2ccc(Cl)cc2)cc1)C(C)C)B(O)O [Compound 51, (1-((S)-1-((4-(((4-chlorophenyl)sulfonyl)carbamoyl)benzoyl)-L-valyl)pyrrolidine-2-carboxamido)-2-methylpropyl)boronic acid] | 100.0 | 90.0 | 79.4 | 84.1 | 90.3 | 90 | 90.3 | > 127 µg/mL and > 200 µM | >200 | 0.0223 ± 0.0006 | 7.46 | <0.3 | <0.3 | 95.0 | 85.8 | < 38 | > 2.42 | < 9.6 |
| CC(C)[C@H](NC(=O)[C@@H]1CCCN1C(=O)[C@@H](NC(=O)c1ccc(C(=O)NCC(=O)O)cc1)C(C)C)B(O)O [Compound 52, (4-(((2S)-1-((2S)-2-((1-borono-2-methylpropyl)carbamoyl)pyrrolidin-1-yl)-3-methyl-1-oxobutan-2-yl)carbamoyl)benzoyl)glycine] | 100.0 | 116.1 | 104.8 | 96.4 | 79.2 | 79 | 79.2 | > 104 µg/mL and > 200 µM | >200 | 0.0127 ± 0.0008 | 10.2 | <0.3 | <0.3 | 103.6 | 78.9 | < 38 | > 2.42 | < 9.6 |
